US4659726A, “Novel 4,5-Bis (4-methoxyphenyl)-2-(pyrrol-2-yl) thiazoles and pharmaceutical composition containing the same” (Kanebo, Ltd., priority 1984, dated 1987)

Experiments:
[1] = test system: Platelet aggregation (arachidonate); test: Platelet aggregation inhibitory activity, ex vivo after oral administration to guinea pigs, sodium arachidonate as aggregating agent; type: in vivo, Hartley strain male guinea pigs; conditions: Cavia porcellus, oral, guinea pig, blood collected after 3 hours, 1.0 mM sodium arachidonate (50 μl), 50% inhibitory rate, read-out: Platelet aggregation inhibitory activity Arachidonate ED50
Description: (§1) Hartley strain male guinea pigs (weighing 300-350 g, one group: three animals) were fasted overnight, and to the animals were orally administered a solution or suspension of the test compounds in corn oil-10% arabic gum. […] The citrated blood thus obtained was centrifuged at 1,700 rpm for 10 minutes, and a platelet-rich plasma (PRP) was obtained from the supernatant. After isolating PRP, the remaining blood was further centrifuged at 3,000 rpm for 10 minutes, and a platelet-poor plasma (PPP) was obtained from the supernatant.
(§2) The PRP (450 μl) thus obtained was incubated at 37° C. for 3 minutes, and thereto was added 1.0 mM sodium arachidonate (50 μl) as an aggregating agent, and then the platelet aggregation thereof was measured with Platelet Aggregation Profiler® (Model PAP-3, manufactured by Bio Data Corp.) while using the PPP obtained above as a blank. As a control, as to animals to which no test compound was administered, the platelet aggregation rate was measured likewise.
(§3) The platelet aggregation inhibitory rate was calculated by the following equation. [formula]

in vivo = conditions: mouse, oral, ddy male mice, deaths counted at 10 days, Weil method, read-out: Acute toxicity LD50
Excerpt: ddy male mice (weighing 18-23 g, one group: 5 animals) were fasted overnight, and thereto was orally administered a suspension of the test compounds in 1% arabic gum solution.

[2] = test system: Platelet aggregation (collagen); test: Platelet aggregation inhibitory activity, ex vivo after oral administration to guinea pigs, collagen as aggregating agent; type: in vivo, Hartley strain male guinea pigs; conditions: Cavia porcellus, oral, guinea pig, blood collected after 3 hours, 100 μg/ml collagen suspension (50 μl), 50% inhibitory rate, read-out: Platelet aggregation inhibitory activity Collagen ED50
Description: as §1, §2, §3
Moreover, the above method was repeated except that 100 μg/ml collagen suspension (50 μl) was used as an aggregating agent instead of sodium arachidonate.

| Structure (SMILES) | ED50 [1] [mg/kg] | LD50 at 240 h (in vivo) [mg/kg] | ED50 [2] [mg/kg] |
| --- | --- | --- | --- |
| CCCCCCCCOC(=O)Cn1cccc1-c1nc(-c2ccc(OC)cc2)c(-c2ccc(OC)cc2)s1 [Ex. 28, n-octyl 2-[4,5-bis(4-methoxyphenyl)thiazol-2-yl]pyrrole-1-acetate] | 0.39 | > 3000 | 0.44 |
| CCCCCCOC(=O)Cn1cccc1-c1nc(-c2ccc(OC)cc2)c(-c2ccc(OC)cc2)s1 [Ex. 27, n-hexyl 2-[4,5-bis(4-methoxyphenyl)thiazol-2-yl]pyrrole-1-acetate] | 0.21 | > 3000 | 0.22 |
| C#CCn1cccc1-c1nc(-c2ccc(OC)cc2)c(-c2ccc(OC)cc2)s1 [Ex. 6, 4,5-Bis(4-methoxyphenyl)-2-(1-propargylpyrrol-2-yl)thiazole] | 0.22 | > 3000 | 0.92 |
| CCOCCCn1cccc1-c1nc(-c2ccc(OC)cc2)c(-c2ccc(OC)cc2)s1 [Ex. 41, 4,5-bis(4-methoxyphenyl)-2-[1-(3-ethoxypropyl)pyrrol-2-yl]thiazole] | 0.3 | > 3000 | 0.35 |
